From patent US20210380606A1, “5-AZAINDAZOLE DERIVATIVES AS ADENOSINE RECEPTOR ANTAGONISTS” (Merck Patent GmbH, priority 2018, published 2021)
Where two headings read alike, the source gives them in different places.

What was measured:
human A2A receptors = target: T1, human A2A receptors (Homo sapiens, UniProt P29274); experiment: Functional human A2A receptor activity, recombinant HEK293 cells, cAMP (HTRF); assay type: cell-based
T1 construct: expressed in transfected cells; host or cells: HEK293
Procedure: (§1) The functional activities of human A2A and A2B receptors were determined by quantification of cAMP, being the second messenger for adenosine receptors.
(§2) After a 15 min incubation, HTRF reagents (cAMP dynamic 2, Cis Bio) were added and the cellular cAMP levels were determined using the ENVISION (Perkin Elmer) plate reader.

human A2B receptors = target: T2, human A2B receptors (Homo sapiens, UniProt P29275); experiment: Functional human A2B receptor activity, recombinant HEK293 cells, cAMP (HTRF); assay type: cell-based
T2 construct: expressed in transfected cells; host or cells: HEK293
T2 sequence (P29275 1-332): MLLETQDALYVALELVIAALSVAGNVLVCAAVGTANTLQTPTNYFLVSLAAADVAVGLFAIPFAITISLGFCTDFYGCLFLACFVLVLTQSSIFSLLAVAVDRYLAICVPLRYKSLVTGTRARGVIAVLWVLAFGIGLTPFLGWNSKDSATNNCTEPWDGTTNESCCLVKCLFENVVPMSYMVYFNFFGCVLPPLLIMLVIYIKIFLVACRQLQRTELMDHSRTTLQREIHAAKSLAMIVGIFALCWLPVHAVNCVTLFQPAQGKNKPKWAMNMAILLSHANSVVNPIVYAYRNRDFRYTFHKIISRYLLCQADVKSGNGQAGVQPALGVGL
Procedure: as §1, §2

[1] = read-out: Functional A2A receptor activity, HEK293, cAMP, IC50
[2] = read-out: Functional A2B receptor activity HEK293, cAMP IC50

T1 sequence (P29274 whole entry): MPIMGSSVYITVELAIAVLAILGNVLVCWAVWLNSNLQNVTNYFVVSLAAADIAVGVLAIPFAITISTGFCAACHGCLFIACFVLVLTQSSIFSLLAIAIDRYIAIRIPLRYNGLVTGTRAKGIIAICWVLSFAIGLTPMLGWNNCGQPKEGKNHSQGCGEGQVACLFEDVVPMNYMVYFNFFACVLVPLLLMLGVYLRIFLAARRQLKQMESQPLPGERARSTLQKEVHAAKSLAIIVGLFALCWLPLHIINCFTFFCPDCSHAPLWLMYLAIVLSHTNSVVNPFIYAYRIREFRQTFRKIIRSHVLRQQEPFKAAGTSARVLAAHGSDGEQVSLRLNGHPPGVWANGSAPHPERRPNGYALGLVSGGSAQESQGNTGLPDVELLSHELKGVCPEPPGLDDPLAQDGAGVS

SMILES	IC50 (human A2A receptors; read-out: A2A (Category))	IC50 (human A2B receptors; read-out: A2B (Category))	further results
O=C(c1ccc2c(-c3cnc4ccc(F)cn34)nn(CC(F)(F)F)c2c1)N1CCCCCC1 [analogue to No. 44, reference compound]	–	–	IC50 (human A2A receptors; [1]): < 100 nM; IC50 (human A2B receptors; [2]): < 1000 nM
CC1(O)C2CCC1CN(C(=O)c1cc3c(cn1)c(-c1coc4ccccc14)nn3CS(C)(=O)=O)C2 (stereo not drawn) [Compound 28, (3-Benzofuran-3-yl-1-methanesulfonylmethyl-1H-pyrazolo[4,3-c]pyridin-6-yl)-(8-endo-hydroxy-8-exo-methyl-d3-3-aza-bicyclo[3.2.1]oct-3-yl)-methanone]	–	–	IC50 (human A2A receptors; recombinant HEK293 cells expressing human A2A receptor, agonist NECA, cAMP HTRF, 15 min incubation, read-out: A2A (Category)): < 100 nM; IC50 (human A2B receptors; recombinant HEK293 cells expressing human A2B receptor, agonist NECA, cAMP HTRF, 15 min incubation, read-out: A2B (Category)): < 100 nM
O=C(c1cc2c(cn1)c(-c1cnc3c(F)cc(F)cn13)nn2CC(F)(F)F)N1[C@@H]2CC[C@H]1C[C@@H](O)C2 [Compound 168, [3-(6,8-Difluoro-imidazo[1,2-a]pyridin-3-yl)-1-(2,2,2-trifluoro-ethyl)-1H-pyrazolo[4,3-c]pyridin-6-yl]-(3-endo-hydroxy-8-aza-bicyclo[3.2.1]oct-8-yl)-methanone]	< 100 nM	< 100 nM	–
O=C(c1ccc2c(-c3cnc4ccc(Cl)cn34)nn(CC(F)(F)F)c2c1)N1CCCCCC1 [analogue to No. 48, reference compound]	–	–	IC50 (human A2A receptors; [1]): < 100 nM; IC50 (human A2B receptors; [2]): > 1000 nM
CCN(C(=O)c1cc2c(cn1)c(-c1coc3ccccc13)nn2CC(F)(F)F)C1CCCCC1 [Compound 235, 3-(benzofuran-3-yl)-N-cyclohexyl-N-ethyl-1-(2,2,2-trifluoroethyl)pyrazolo[4,3-c]pyridine-6-carboxamide]	< 100 nM	< 1000 nM	–
CSCn1nc(-c2cnc3c(F)cc(F)cn23)c2cnc(C(=O)N3CC4CCC(C4)C3)cc21 [Compound 14, (3-Aza-bicyclo[3.2.1]oct-3-yl)-[3-(6,8-difluoro-imidazo[1,2-a]pyridin-3-yl)-1-methylsulfanylmethyl-1H-pyrazolo[4,3-c]pyridin-6-yl]-methanone]	< 100 nM	< 100 nM	–
O=C(c1cc2c(cn1)c(-c1cnc3c(F)cc(F)cn13)nn2CC(F)(F)F)N1CCC(F)CC1 [Compound 144, [3-(6,8-Difluoro-imidazo[1,2-a]pyridin-3-yl)-1-(2,2,2-trifluoro-ethyl)-1H-pyrazolo[4,3-c]pyridin-6-yl]-(4-fluoro-piperidin-1-yl)-methanone]	< 100 nM	< 1000 nM	–
O=C(c1cc2c(cn1)c(-c1c[nH]c3ccc(F)cc13)nn2CC(F)(F)F)N1CCCOCC1 [Compound 123, [3-(5-fluoro-1H-indol-3-yl)-1-(2,2,2-trifluoroethyl)pyrazolo[4,3-c]pyridin-6-yl]-(1,4-oxazepan-4-yl)methanone]	< 100 nM	< 100 nM	–
O=C(c1cc2c(cn1)c(-c1cnc3c(F)cc(F)cn13)nn2CC(F)(F)F)N1CCOC2CC21 (stereo not shown) [Compound 205, [3-(6,8-Difluoro-imidazo[1,2-a]pyridin-3-yl)-1-(2,2,2-trifluoro-ethyl)-1H-pyrazolo[4,3-c]pyridin-6-yl]-(2-oxa-5-aza-bicyclo[4.1.0]hept-5-yl)-methanone]	< 100 nM	< 1000 nM	–
CCC1(O)C2CCC1CN(C(=O)c1cc3c(cn1)c(-c1coc4ccccc14)nn3CC(F)(F)F)C2 (stereo not drawn) [Compound 210, [3-Benzofuran-3-yl-1-(2,2,2-trifluoro-ethyl)-1H-pyrazolo[4,3-c]pyridin-6-yl]-(8-exo-ethyl-8-endo-hydroxy-3-aza-bicyclo[3.2.1]oct-3-yl)-methanone]	< 100 nM	< 1000 nM	–
O=C(c1cc2c(cn1)c(-c1cnc3c(F)cc(F)cn13)nn2CC(F)(F)F)N1CCCCCC1 [Compound 60, Azepan-1-yl-[3-(6,8-difluoro-imidazo[1,2-a]pyridin-3-yl)-1-(2,2,2-trifluoro-ethyl)-1H-pyrazolo[4,3-c]pyridin-6-yl]-methanone]	< 100 nM	< 100 nM	–
O=C(c1cc2c(cn1)c(-c1cnn3ccccc13)nn2CC(F)(F)F)N1CCCOCC1 [Compound 95, 1,4-Oxazepan-4-yl-[3-pyrazolo[1,5-a]pyridine-3-yl-1-(2,2,2-trifluoro-ethyl)-1H-pyrazolo[4,3-c]pyridine-6-yl]-methanone]	< 100 nM	< 1000 nM	–
NC(=O)Cn1nc(-c2coc3ccccc23)c2cnc(C(=O)N3CCCOCC3)cc21 [Compound 105, 2-[3-Benzofuran-3-yl-6-(1,4-oxazepane-4-carbonyl)-pyrazolo[4,3-c]pyridin-1-yl]-acetamide]	< 100 nM	< 1000 nM	–
CC1(O)CCN(C(=O)c2cc3c(cn2)c(-c2cnc4c(F)cc(F)cn24)nn3CC(F)(F)F)CC1 [Compound 133, [3-(6,8-Difluoro-imidazo[1,2-a]pyridin-3-yl)-1-(2,2,2-trifluoro-ethyl)-1H-pyrazolo[4,3-c]pyridin-6-yl]-(4-hydroxy-4-methyl-piperidin-1-yl)-methanone]	< 100 nM	< 1000 nM	–

Now from value to compound, other results behind:

IC50 (human A2A receptors; read-out: A2A (Category))	IC50 (human A2B receptors; read-out: A2B (Category))	SMILES	further results
< 100 nM	< 100 nM	O=C(c1cc2c(cn1)c(-c1cnc3cc(Cl)c(F)cn13)nn2CC(F)(F)F)N1CCCCCC1 [Compound 73, Azepan-1-yl-[3-(7-chloro-6-fluoro-imidazo[1,2-a]pyridin-3-yl)-1-(2,2,2-trifluoro-ethyl)-1H-pyrazolo[4,3-c]pyridin-6-yl]-methanone]	–
< 100 nM	< 1000 nM	N#Cc1ccc2ncc(-c3nn(CC(F)(F)F)c4cc(C(=O)N5CCCOCC5)ncc34)n2c1 [Compound 81, 3-[6-(1,4-Oxazepane-4-carbonyl)-1-(2,2,2-trifluoro-ethyl)-1H-pyrazolo[4,3-c]pyridin-3-yl]-imidazo[1,2-a]pyridine-6-carbonitrile]	–
< 100 nM	< 1000 nM	C#CC1(O)C2CCC1CN(C(=O)c1cc3c(cn1)c(-c1coc4ccccc14)nn3CC(F)(F)F)C2 (stereo not shown) [Compound 214]	–
< 100 nM	< 100 nM	CS(=O)(=O)Cn1nc(-c2coc3ccccc23)c2cnc(C(=O)N3CCC(O)CC3)cc21 [Compound 36, (3-Benzofuran-3-yl-1-methanesulfonylmethyl-1H-pyrazolo[4,3-c]pyridin-6-yl)-(4-hydroxy-piperidin-1-yl)-methanone]	–
< 100 nM	< 1000 nM	O=C(c1cc2c(cn1)c(-c1coc3ccccc13)nn2CCF)N1CCCOCC1 [Compound 104, [3-Benzofuran-3-yl-1-(2-fluoro-ethyl)-1H-pyrazolo[4,3-c]pyridin-6-yl]-1,4-oxazepan-4-yl-methanone]	–
< 100 nM	< 1000 nM	CC(C)(C)OC(=O)NC1COCCN(C(=O)c2cc3c(cn2)c(-c2cnc4c(F)cc(F)cn24)nn3CC(F)(F)F)C1 (stereo not shown) [Compound 204, {4-[3-(6,8-Difluoro-imidazo[1,2-a]pyridin-3-yl)-1-(2,2,2-trifluoro-ethyl)-1H-pyrazolo[4,3-c]pyridine-6-carbonyl]-1,4-oxazepan-6-yl}-carbamic Acid Tert-Butyl Ester]	–
< 100 nM	< 1000 nM	[2H]C1([2H])COCCN(C(=O)c2cc3c(cn2)c(-c2c[nH]c4ccccc24)nn3CC(F)(F)F)C1 [Example 242, (6,6-dideuterio-1,4-oxazepan-4-yl)-[3-(1H-indol-3-yl)-1-(2,2,2-trifluoroethyl)pyrazolo[4,3-c]pyridin-6-yl]methanone]	–
< 100 nM	< 100 nM	CS(=O)(=O)Cn1nc(-c2coc3ccccc23)c2cnc(C(=O)N3CCCC(F)(F)C3)cc21 [Compound 39, (3-Benzofuran-3-yl-1-methanesulfonylmethyl-1H-pyrazolo[4,3-c]pyridin-6-yl)-(3,3-difluoro-piperidin-1-yl)-methanone]	–
< 100 nM	< 1000 nM	COCn1nc(-c2cnc3ccc(F)cn23)c2cnc(C(=O)N3CCCCCC3)cc21 [Compound 6, Azepan-1-yl-[3-(6-fluoro-imidazo[1,2-a]pyridin-3-yl)-1-methoxymethyl-1H-pyrazolo[4,3-c]pyridin-6-yl]-methanone]	–
< 100 nM	< 1000 nM	CC1(O)C2CCC1CN(C(=O)c1cc3c(cn1)c(-c1cnc4c(F)cc(F)cn14)nn3CC(F)(F)F)C2 (stereo not drawn) [Compound 162, [3-(6,8-Difluoro-imidazo[1,2-a]pyridin-3-yl)-1-(2,2,2-trifluoro-ethyl)-1H-pyrazolo[4,3-c]pyridin-6-yl]-(8-endo-hydroxy-8-exo-methyl-3-aza-bicyclo[3.2.1]oct-3-yl)-methanone]	–
< 100 nM	< 1000 nM	O=C(c1cc2c(cn1)c(-c1c[nH]c3ncccc13)nn2CC(F)(F)F)N1CCCCCC1 [Compound 92, Azepan-1-yl-[3-(1H-pyrrolo[2,3-b]pyridin-3-yl)-1-(2,2,2-trifluoro-ethyl)-1H-pyrazolo[4,3-c]pyridin-6-yl]-methanone]	–
< 100 nM	< 1000 nM	CC1(C)CN(C(=O)c2cc3c(cn2)c(-c2cnc4c(F)cc(F)cn24)nn3CC(F)(F)F)CCCO1 [Compound 182, [3-(6,8-Difluoro-imidazo[1,2-a]pyridin-3-yl)-1-(2,2,2-trifluoro-ethyl)-1H-pyrazolo[4,3-c]pyridin-6-yl]-(2,2-dimethyl-1,4-oxazepan-4-yl)-methanone]	–
